The text below walks through data of patent publication US7265152B2 (ViroPharma Incorporated, priority 2002, dated 2007).

Like-named read-outs stand apart in the source and are kept apart here.

For assay [1], the system named is HCV replicon (BB7 sequence) in Huh-7-Clone A cells. Briefly: HCV replicon assay: ELISA of NS5A protein in replicon-containing cells (Inhibition of Viral RNA Replication). The class given is cell-based. The settings on record: Hepatitis C virus, read-out: Replicon. The gist of the method:
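EC50 taken from an 8-point serially diluted dose curve, with NS5A level as read-out: fixed cells probed with primary monoclonal and HRP-conjugated secondary, TMB developed 30 min, OD 650 nm. Compound exposure 72 h in Huh-7-Clone A replicon cells (BB7 sequence).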

For assay [2], the target named is T1, HCV NS5B (Hepatitis C virus genotype 1b, UniProt Q9WMX2).
T1 construct: fusion protein, of which the carboxyl terminal 21 amino acids were removed to enhance its solubility; His tag (GSHHHHHH); made in house; host or cells: E. coli
Description: Inhibition of viral RNA-dependent RNA polymerase (RdRp), in vitro biochemical assay. Also on record: species or system HCV genotype 1b virus (BB7). The settings on record: read-out: HCV pol-BB7 IC50. The gist of the method:
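IC50 values are the concentrations that halve in vitro RNA synthesis by HCV NS5B polymerase. The enzyme was a C-terminally truncated (Δ21), His-tagged genotype 1b (BB7 consensus) protein purified from E. coli.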

Where [3] appears, read: Huh-7-Clone A, NS5A ELISA, 72-hour incubation, ranges of EC50.
The mark [4] stands for this setting: purified His-tagged NS5B (BB7), carboxyl terminal 21 amino acids removed.
Where [5] appears, read: ranges of EC50 in HCV replicon assay.
Where [6] appears, read: HCV replicon assay, ranges of EC50.
Where [7] appears, read: HCV NS5B RdRp, BB7, class symbols A-D.
Where [8] appears, read: HCV NS5B RdRp, BB7, reported as range class.
Where [9] appears, read: HCV NS5B RdRp, BB7, activity class.
The mark [10] stands for this setting: HCV replicon assay, ranges of 50% effective concentration (EC50).
[11] abbreviates: HCV NS5B polymerase, BB7 (genotype 1b), values given as range classes A-D.

For `CNC(=O)c1c(-c2ccc(F)cc2)oc2cc(-c3cc(CO)on3)c(OC(C)C)cc12` [Example 37, 2-(4-Fluoro-phenyl)-6-(5-hydroxymethyl-isoxazol-3-yl)-5-isopropoxy-benzofuran-3-carboxylic acid methylamide], in assay [1] (setting [3]), the EC50 was less than 1000 nM. Further, the IC50 in assay [2] (setting [4]) is not above 500 nM.

Turning to `CNC(=O)c1c(-c2ccc(N3CCOCC3)cc2)oc2ccc(OC)cc12` [Example 93, 5-Methoxy-2-(4-morpholin-4-yl-phenyl)-benzofuran-3-carboxylic acid methylamide], in assay [1] (setting [5]), the EC50 was more than 30000 nM. Moreover, in assay [2] (HCV NS5B RdRp, BB7 genotype 1b), the IC50 lay within 500 to 5000 nM.

In the case of `CCN(c1cc2oc(-c3ccc(F)cc3)c(C(=O)NC)c2cc1OC)S(C)(=O)=O` [Example 277, 6-(Ethyl-methanesulfonyl-amino)-2-(4-fluoro-phenyl)-5-methoxy-benzofuran-3-carboxylic acid methylamide], the EC50 in assay [1] (setting [6]) is less than 1000 nM. For the same molecule, the half-inhibitory concentration (IC50) in assay [2] (setting [7]) is not above 500 nM.

Turning to `CNC(=O)c1c(-c2ccc(F)cc2)oc2ccc(OC)cc12` [Example 12, 2-(4-Fluoro-phenyl)-5-methoxy-benzofuran-3-carboxylic acid methylamide], the EC50 in assay [1] (setting [3]) was less than 10000 nM. Further, the half-maximal inhibitory concentration (IC50) in assay [2] (setting [4]) is not above 500 nM.

`CNC(=O)c1c(-c2ccc(F)cc2)oc2cc(N(CC(C)=O)S(C)(=O)=O)c(OC(C)C)cc12` [Example 34, 2-(4-Fluoro-phenyl)-5-isopropoxy-6-[methanesulfonyl-(2-oxo-propyl)-amino]-benzofuran-3-carboxylic acid methylamide]: in assay [1] (setting [3]), the EC50 is less than 1000 nM. In addition, in assay [2] (setting [4]), the IC50 was not above 500 nM.

As for `CNC(=O)c1c(-c2ccc(F)cc2)oc2cc(C)c(OC)cc12` [Example 81, 2-(4-Fluoro-phenyl)-5-methoxy-6-methyl-benzofuran-3-carboxylic acid methylamide], the EC50 in assay [1] (setting [3]) is less than 10000 nM. Also, the IC50 in assay [2] (setting [4]) was not above 500 nM.

Consider `C=CCN(c1cc2oc(-c3ccc(F)cc3)c(C(=O)NC)c2cc1OC(C)C)S(C)(=O)=O` [Example 195, 6-(Allyl-methanesulfonyl-amino)-2-(4-fluoro-phenyl)-5-isopropoxy-benzofuran-3-carboxylic acid methylamide], for which the EC50 in assay [1] (HCV replicon, range of EC50) was less than 1000 nM. For the same molecule, in assay [2] (setting [8]), the IC50 was not above 500 nM.

For the molecule `CCCOc1cc2c(C(=O)NC)c(-c3ccc(F)cc3)oc2cc1N(CCC)S(C)(=O)=O` [Example 338, 2-(4-Fluoro-phenyl)-6-(methanesulfonyl-propyl-amino)-5-propoxy-benzofuran-3-carboxylic acid methylamide], in assay [1] (setting [6]), the EC50 is less than 1000 nM. For the same molecule, in assay [2] (setting [9]), the IC50 was not above 500 nM.

As for `CNC(=O)c1c(-c2ccc(F)cc2)oc2cc(NS(C)(=O)=O)c(-c3cccs3)cc12` [Example 420, 2-(4-Fluoro-phenyl)-6-methanesulfonylamino-5-thiophen-2-yl-benzofuran-3-carboxylic acid methylamide], the EC50 in assay [1] (setting [10]) was less than 1000 nM. In assay [2] (setting [11]), the IC50 was not above 500 nM.

For the molecule `CCNc1cc2oc(-c3ccc(F)cc3)c(C(=O)NC)c2cc1OCCCOCC` [Example 367, 5-(3-Ethoxy-propoxy)-6-ethylamino-2-(4-fluoro-phenyl)-benzofuran-3-carboxylic acid methylamide], the EC50 in assay [1] (setting [6]) is less than 1000 nM. Also, the IC50 in assay [2] (setting [9]) was not above 500 nM.

As to `CNC(=O)c1c(-c2ccc(F)cc2)oc2cc(N(C)S(C)(=O)=O)c(OCC(=O)Nc3nncs3)cc12` [Example 416, 2-(4-Fluoro-phenyl)-6-(methanesulfonyl-methyl-amino)-5-([1,3,4]thiadiazol-2-ylcarbamoylmethoxy)-benzofuran-3-carboxylic acid methylamide], in assay [1] (setting [10]), the EC50 was less than 1000 nM. Also, the IC50 in assay [2] (setting [11]) was not above 500 nM.

Consider `CNC(=O)c1c(-c2ccc(F)cc2)oc2cc(-c3cnco3)c(OC(C)C)cc12` [Example 168, 2-(4-Fluoro-phenyl)-5-isopropoxy-6-oxazol-5-yl-benzofuran-3-carboxylic acid methylamide], for which the EC50 in assay [1] (setting [5]) was less than 10000 nM. The IC50 in assay [2] (HCV NS5B RdRp, BB7 genotype 1b) is not above 500 nM.

In the case of `CNC(=O)c1c(-c2ccc(F)cc2)oc2cc(-c3nc(C)n[nH]3)c(OC)cc12` [Example 383, 2-(4-Fluoro-phenyl)-5-methoxy-6-(5-methyl-2H-[1,2,4]triazol-3-yl)-benzofuran-3-carboxylic acid methylamide], the EC50 in assay [1] (setting [10]) was less than 10000 nM. Besides, the IC50 in assay [2] (setting [11]) is 500 to 5000 nM.

On to `CNC(=O)c1c(-c2ccc(F)cc2)oc2cc(C(C)(O)CN)c(OC(C)C)cc12` (stereo not shown) [Example 375, 6-(2-Amino-1-hydroxy-1-methyl-ethyl)-2-(4-fluoro-phenyl)-5-isopropoxy-benzofuran-3-carboxylic acid methylamide], for which the EC50 in assay [1] (setting [6]) was less than 30000 nM. Also, in assay [2] (setting [9]), the IC50 was 500 to 5000 nM.

`CCNc1cc2oc(-c3ccc(F)cc3)c(C(=O)NC)c2c(Cl)c1OC` [Example 363, 4-Chloro-6-ethylamino-2-(4-fluoro-phenyl)-5-methoxy-benzofuran-3-carboxylic acid mehtylamide]: the EC50 in assay [1] (setting [6]) is less than 1000 nM. In addition, the IC50 in assay [2] (setting [9]) was not above 500 nM.

`CNC(=O)c1c(-c2ccc(F)cc2)oc2cc(CN3CCOCC3)c(OC(C)C)cc12` [Example 223, 2-(4-Fluoro-phenyl)-5-isopropoxy-6-morpholin-4-ylmethyl-benzofuran-3-carboxylic acid methylamide]: the EC50 in assay [1] (HCV replicon, range of EC50) was less than 10000 nM. Also, the IC50 in assay [2] (setting [8]) fell in the range of 5000 to 30000 nM.

For `CNC(=O)c1c(-c2ccc(F)cc2)oc2cc(-c3cc(C)nn3C)c(OC(C)C)cc12` [Example 245, 6-(2,5-Dimethyl-2H-pyrazol-3-y1)-2-(4-fluoro-phenyl)-5-isopropoxybenzofuran 3-carboxylic acid methylamide], the EC50 in assay [1] (HCV replicon, range of EC50) is less than 10000 nM. Besides, the IC50 in assay [2] (setting [8]) fell in the range of 500 to 5000 nM.

As for `CNC(=O)c1c(-c2ccc(F)cc2)oc2cc(N(C)S(C)(=O)=O)c(OC(F)F)cc12` [Example 298, 5-Difluoromethoxy-2-(4-fluoro-phenyl)-6-(methanesulfonyl-methyl-amino)-benzofuran-3-carboxylic acid methylamide], the EC50 in assay [1] (setting [6]) was less than 1000 nM. Besides, the IC50 in assay [2] (setting [7]) is not above 500 nM.

On to `CNC(=O)c1c(-c2ccc(F)cc2)oc2cc(N(CC(F)(F)F)S(C)(=O)=O)c(OC)cc12` [Example 308, 2-(4-Fluoro-phenyl)-6-[methanesulfonyl-(2,2,2-trifluoro-ethyl)-amino]-5-methoxy-benzofuran-3-carboxylic acid methylamide], for which the EC50 in assay [1] (setting [6]) was less than 1000 nM. The IC50 in assay [2] (setting [7]) is not above 500 nM.

`CNC(=O)c1c(-c2ccc(F)cc2)oc2cc(N(C)S(C)(=O)=O)c(OCC(N)=O)cc12` [Example 424, 5-Carbamoylmethoxy-2-(4-fluoro-phenyl)-6-(methanesulfonyl-methyl-amino)-benzofuran-3-carboxylic acid methylamide]: in assay [1] (setting [10]), the EC50 was less than 1000 nM. The IC50 in assay [2] (setting [11]) was not above 500 nM.

Consider `CNC(=O)c1c(-c2ccc(Br)c(F)c2)oc2ccc(OC(C)C)cc12` [Example 90, 2-(4-Bromo-3-fluoro-phenyl)-5-isopropoxy-benzofuran-3-carboxylic acid methylamide], for which the EC50 in assay [1] (setting [5]) is less than 10000 nM. Besides, the IC50 in assay [2] (HCV NS5B RdRp, BB7 genotype 1b) was not above 500 nM.

Consider `CNC(=O)c1c(-c2ccc(F)cc2)oc2cc(N(Cc3cccc(CBr)n3)S(C)(=O)=O)c(OCc3cccc(CBr)n3)cc12` [Example 391, 5-(6-Bromomethyl-pyridin-2-ylmethoxy)-6-[(6-bromomethyl-pyridin-2-ylmethyl)-methanesulfonyl-amino] 2-(4-fluoro-phenyl)-benzofuran-3-carboxylic acid methylamide], for which, in assay [1] (setting [10]), the EC50 was less than 10000 nM. Moreover, in assay [2] (setting [11]), the IC50 is not above 500 nM.

As for `CNC(=O)c1c(-c2ccc(F)cc2)oc2cc(N3CCOCC3)c(OCc3nnc(-c4ccc(C)cc4)o3)cc12` [Example 207, 2-(4-Fluoro-phenyl)-6-morpholin-4-yl-5-(5-p-tolyl-[1,3,4]oxadiazol-2-ylmethoxy)-benzofuran-3-carboxylic acid methylamide], the EC50 in assay [1] (HCV replicon, range of EC50) was less than 10000 nM. Moreover, the IC50 in assay [2] (setting [8]) lay within 5000 to 30000 nM.

Take `CNC(=O)c1c(-c2ccc(F)cc2)oc2cc(-c3cc(C)on3)c(OC(C)C)cc12` [Example 283, 2-(4-Fluoro-phenyl)-5-isopropoxy-6-(5-methyl-isoxazol-3-yl)-benzofuran-3-carboxylic acid methylamide]: in assay [1] (setting [6]), the EC50 was less than 1000 nM. Besides, in assay [2] (setting [7]), the IC50 was not above 500 nM.

Take `CNC(=O)c1c(-c2ccc(F)cc2)oc2cc(N3CCCCC3)c(OC(C)C)cc12` [Example 101, 2-(4-Fluoro-phenyl)-5-isopropoxy-6-piperidin-1-yl-benzofuran-3-carboxylic acid methylamide]: the EC50 in assay [1] (setting [5]) was less than 1000 nM. For the same molecule, the IC50 in assay [2] (HCV NS5B RdRp, BB7 genotype 1b) was not above 500 nM.

In the case of `CNC(=O)c1c(-c2ccc(F)cc2)oc2cc(N(C)S(C)(=O)=O)c(OCCn3nc(C)cc3C)cc12` [Example 425, 5-[2-(3,5-Dimethyl-pyrazol-1-yl)-ethoxy]-2-(4-fluoro-phenyl)-6-(methanesulfonyl-methyl-amino)-benzofuran-3-carboxylic acid methylamide], the EC50 in assay [1] (setting [10]) is less than 1000 nM. The 50% inhibitory concentration (IC50) in assay [2] (setting [11]) is not above 500 nM.

For orientation: IC50 means the concentration at which inhibition is half-maximal.
